Assays:
[1] = system: canine platelets; test: Canine platelet aggregation in vitro (ADP, arachidonic acid, collagen); assay type: cell-based, dog; conditions: stimulated by 10 μm ADP, […] arachidonic acid or 9.6 micrograms/ml collagen; read-out: IC50 against canine platelet aggregation
[2] = system: platelets; test: Ex vivo platelet aggregation in the canine coronary thrombosis study; conditions: dog
Experimental: For all ex vivo studies (see FIGS. 3A, 3B1, 3B2, 3B3, 3C1 and 3C2), control aggregation values were standardized to the percentages of light transmission observed in PRP and PPP samples (0% and 100%, respectively).
(§1) Animals were randomly assigned to two treatment groups: vehicle control (i.e., normal saline) or RGD peptides at various concentrations. Peptides were administered intra-atrially in both bolus and continuous injections. Each bolus injection consisted of 0.5 to 10 mg/kg and was administered 15 minutes before application of the current. A continuous infusion of the same peptide was then started immediately after completion of this initial injection. Animals received a 25 μg/kg/min to 200 μg/kg/min infusion. The anti-thrombotic effects of the peptides were monitored until 30 minutes after the occurrence of a persistent, occlusive thrombus or five hours after the initiation of electrical stimulation (whichever resulted first). If an occlusive thrombus had not developed within four hours after the initiation of current, the peptide infusion was stopped.
Platelet counts and ex vivo aggregation studies were performed one hour before and 1, 3, and 5 hours after application of anodal direct current.
Platelet aggregation was also determined ex vivo at one, three, and five hours after current application. For these studies, arachidonic acid, or collagen was again used to stimulate the platelets.

[3] = system: coronary thrombosis; test: Electrically induced canine coronary thrombosis, time to full occlusion; assay type: in vivo; conditions: dog
Experimental: Male mongrel dogs weighing 14 to 20 kg were selected based on proper aggregation of their platelets in response to arachidonic acid, collagen, and adenosine disphosphate (ADP) and based on similar weights and hemodynamic properties.
Before surgery, the animals were anesthetized with sodium pentobarbital (30 mg/kg, i.v.) and then intubated and ventilated on room air with positive pressure using a respirator (Harvard Apparatus, S. Natick, Mass.) at a volume of 30 ml/kg and a frequency of 12 breaths/min. Surgery, performed under aseptic conditions, was begun with the placement of cannulae into the left carotid artery and jugular vein for monitoring arterial blood pressure (Statham P23 pressure transducer, Gould, Inc., Cardiovascular Products, Oxnard, CA) and administering intravenous fluids.
The heart was exposed via a left thoracotomy through the 5th intercostal space. A 2-cm segment of the left circumflex coronary artery (LCCA) was isolated from surrounding tissue by blunt dissection. […] The intra-coronary electrode was constructed by attaching a 25-gauge hypodermic needle tip to a 30-gauge Teflon-insulated silver-coated copper wire. The mechanical occluder was constructed of stainless steel in a C shape with a Teflon screw (2 mm diameter) on top. It was adjusted to control vessel circumference and decrease the reactive hyperemic flow due to a 10-sec (full) occlusion by 50-70% without affecting basal coronary blood flow (FIG. 1C). A monopolar epicardial electrode was sutured to the surface of the ventricle in the region of LCCA distribution to monitor ischemic changes in the electrocardiogram (ECG). The left atrium was cannulated with polythylene tubing for administration of the peptide. Continuous recordings of blood pressure, limb lead II ECG, epicardial electrogram, and mean and phasic LCCA blood flow were obtained on a Model 7 polygraph (Grass Instrument Co., Quincy, Mass.).
One hour after the completion of surgery, a 100 micro-amp continuous anodal direct current delivered from a 9 volt nickel-cadmium battery was applied to the intimal surface of the LCCA. The anode of the battery was in series with a 250,000 ohm potentiometer and the intraluminal coronary artery electrode. The electric circuit was completed by placing the cathode in a subcutaneous site. Electrical stimulation was applied for three hours. At the conclusion of each experiment, the heart was fibrillated electrically and quickly removed, and the LCCA was dissected free as far as possible to verify the position of the implanted anodal electrode.
as §1
Coronary thrombosis was quantified as the time to full occlusion. The effects of the various peptide treatments on coronary thrombosis is illustrated in FIG. 4.

[4] = system: Gore-tex vascular graft thrombosis; test: Platelet and fibrinogen uptake by Gore-Tex grafts, baboon ex vivo shunt; assay type: in vivo
Experimental: Adult male baboons (weighing 16 to 25 kg) were used in these studies. These were sedated with ketamine hydrochloride (200 to 250 mg intramuscular injection) and maintained under anesthesia with sodium pentobarbital (50 to 75 mg administered intravenously as necessary).
Twenty-four hours before the ex vivo shunt was established, platelets were isolated from 500 ml of blood from the test animal and labelled with ca. 500 microcuries of indium-111 oxine (Medi+Physics, Emeryville, Calif.), which irreversibly and specifically binds to platelets with an efficiency of 50%. Immediately after labelling, these platelets were then injected back into the animal and allowed to circulate for 24 hours. Immediately before the start of the study, fibrinogen that had been isolated from the animal and labelled with iodine-131 (DuPont Nuclear, Boston, Mass.) was also injected back into the animal. Also at this time, baseline determinations of the clotting and template bleeding times were made, and blood samples were drawn for hematology studies.
To establish the ex vivo shunt, the femoral artery and vein were percutaneously cannulated with introducer catheters (KMA Inc., Mansfield, Mass.). The catheters were then connected to medical-grade, heparin-coatedsilastic tubing (2.59 mm internal diameter, (Extracorporeal Medical Specialties, Inc., King of Prussia, Pa.). […] Finally, a 5 cm-long test segment of a 4 mm (internal diameter) vascular graft was inserted at the apex of the circuit. The graft used in these studies was Gore-tex (expanded polytetrafluoroethylene, (W. L. Gore and Associates, Inc., Flagstaff, Az). An electromagnetic flow probe was then inserted into the tubing circuit to measure blood flow, which was maintained at 100 ml/min. by varying the resistance imported by a partially occluding screw clamp that was distal to the probe. Finally, a 5 cm-long test segment of a 4 mm (internal diameter) vascular graft was inserted at the apex of the circuit. The graft used in these studies was Gore-tex (expanded polytetrafluoroethylene, W. L. Gore and Associates, Inc., Flagstaff, Ariz.).
Platelet deposition onto the grafts was monitored by dynamic scanning with a gamma camera (Sigma 400, Ohio Nuclear, Inc., Sohon, Ohio), which detects the gamma radiation emitted by the ^111 indium-labelled platelets. Once the circuit was in place, the animal was placed under this camera, and blood flow was initiated. Scans were then taken at the rate of one frame per two minutes for two hours. The data from these scans were collected on a dedicated Digital MDA computer (Maynard, Mass.). […]

[5] = system: platelets; test: Platelet aggregation on PRP of the peptide-treated baboon; assay type: in vivo; conditions: baboon animal 2, ADP 10 μm, 0, 1 and 2 hours
Experimental: At one- and two-hour time points, template bleeding times were measured, and blood samples were drawn to assess the hematology aggregation studies. Platelet aggregation studies were performed as described in Example V using ADP as the stimulus.
In addition, platelet aggregation studies were conducted on PRP derived from the second animal. Whole blood was drawn at three time points (0, 1 and 2 hours) of both control and experimental shunts.

[6] = system: human platelets; test: Human platelet aggregation, modified assay (Table II); assay type: cell-based; conditions: human PRP, citrate; aggregating agent collagen, U46619 or ADP
Experimental: In an independent study, a slightly modified aggregation assay was used. Platelet aggregation assays were performed in human platelet rich plasma (PRP). […] The blood was centrifuged at 160×g for 10 minutes at 22° C. and allowed to stand for 5 minutes after which the PRP was decanted. Platelet poor plasma (PPP) was isolated from the remaining blood after centrifugation at 2000×g for 25 minutes. The platelet count of the PRP was diluted to about 300,000 platelets per microliter with PPP.
A 225 μl aliquot of PRP plus 25 μl of either a dilution of the test inhibitor sample or a control (PBS) was incubated for 5 minutes in a Chrono-log Whole Blood Aggregometer at 37° C. An aggregating agent (collagen, 1 μg/ml; U46619, 100 ng/ml; or ADP, 17μM) was added and the transmission was recorded.

[7] = Peripheral blood flow (PBF), laser dopler flow probe, rabbit ear; assay type: in vivo; conditions: time 10 min, bolus dose as listed per peptide
Experimental: Unanesthetized male New Zealand White rabbits (2.5-3.5 kg) were placed in a standard rabbit restrainer. Ears were shaved and a 20G teflon catheter with flowswitch (Viggo) was placed in the medial artery, flushed with saline and locked with 1 ml of heparinized saline ([…]). A 22G catheter (Abbott) fitted with an injection cap (Medex) was placed in the marginal vein of the same ear. Saline or a GP IIb IIIa receptor antagonist, at a concentration of 1 to 3 mg/ml, was infused via the venous catheter. At time 0, 41% of the dose was given as a bolus over 2 minutes. The remainder was continuously infused over the following 60 minutes. Blood samples (3.2 ml) were collected into syringes without needles via the arterial catheter at -10, -5, 10, 45 and 60 minutes. […] The sample was divided into 1.5 ml aliquots and centrifuged at room temperature for 5 seconds at 12,000 G. The resulting platelet rich plasma (PRP) is used to measure ex-vivo platelet aggregation (XPA). […]
In an alternative series of experiments, (Table 2) PBF was measured quantitatively with a laser dopler flow probe (Perimed). The probe was positioned securely over the vascular bed of one ear and flow monitored continuously. Each inhibitor was infused and CBT measured in the opposing ear. No arterial catheter was placed for blood sampling, consequently XPA […] in these animals. […]

[8] = system: platelets; test: Thrombin-stimulated platelet aggregation (Table I); conditions: read-out: Thrombin Stimulated Aggregation; thrombin 2 U/ml, gel-filtered platelets, 37° C.
Experimental: (§2) Briefly, the change in light transmission was measured through a stirred suspension of platelets in an aggregometer (Model 400 VS, Chrono-Log, Hayertown, Pa., USA). […] In studies using thrombin, the PRP was gel-filtered on Sepharose 2B in divalent ion-free Tyrode's solution containing 2% BSA. For all studies, the reference standard was platelet-poor plasma, which was obtained by centrifuging PRP at 1000×g for 5 min.
(§3) All aggregation studies were performed at 37° C. with a constantly stirred suspension of 3×10^8 platelets/ml. (Platelet count was determined with the aid of a hemacytometer.) Peptides and stimulants were added to these suspensions in 1% dilutions. The PRP and gel-filtered platelets were used within three hours from the time of blood collection.
(§4) Peptide anti-aggregation potencies were determined from dose-responsive curves for the inhibition of the maximum aggregation responses stimulated by physiologic doses of ADP (10 μm) and thrombin (2 U/ml).

[9] = system: platelets; test: ADP-stimulated platelet aggregation in platelet-rich plasma (Table I); conditions: read-out: ADP-Stimulated Aggregation; ADP 10 μm, citrated platelet-rich plasma, 37° C.; * concentrations unconfirmed by amino acid composition analysis
Experimental: as §2, §3, §4

[10] = system: platelets; test: Ex vivo platelet aggregation in dogs (Example XII H); conditions: dog, 10 μg/mL collagen as agonist
Experimental: More importantly, several peptides in FIG. 23 were administered to dogs (according to the method of Example VII) at doses capable of inhibiting ex vivo platelet aggregation by >95%.
The bleeding time indicated in the parentheses was measured at a five-fold higher concentration of peptide. […]

[11] = target: GP IIb/IIIa (Homo sapiens, UniProt P05106+P08514); test: Inhibition of ligand binding to GP IIb/IIIa; conditions: fibrinogen versus fibronectin and vitronectin
[12] = baboon animal 1, two bolus IV injections of 10 mg/kg
[13] = baboon animal 2, 10 mg/kg bolus IV then 10 mg/kg/hr infusion for two hours

GP IIb/IIIa, sequence (P08514 32-887 limits assumed): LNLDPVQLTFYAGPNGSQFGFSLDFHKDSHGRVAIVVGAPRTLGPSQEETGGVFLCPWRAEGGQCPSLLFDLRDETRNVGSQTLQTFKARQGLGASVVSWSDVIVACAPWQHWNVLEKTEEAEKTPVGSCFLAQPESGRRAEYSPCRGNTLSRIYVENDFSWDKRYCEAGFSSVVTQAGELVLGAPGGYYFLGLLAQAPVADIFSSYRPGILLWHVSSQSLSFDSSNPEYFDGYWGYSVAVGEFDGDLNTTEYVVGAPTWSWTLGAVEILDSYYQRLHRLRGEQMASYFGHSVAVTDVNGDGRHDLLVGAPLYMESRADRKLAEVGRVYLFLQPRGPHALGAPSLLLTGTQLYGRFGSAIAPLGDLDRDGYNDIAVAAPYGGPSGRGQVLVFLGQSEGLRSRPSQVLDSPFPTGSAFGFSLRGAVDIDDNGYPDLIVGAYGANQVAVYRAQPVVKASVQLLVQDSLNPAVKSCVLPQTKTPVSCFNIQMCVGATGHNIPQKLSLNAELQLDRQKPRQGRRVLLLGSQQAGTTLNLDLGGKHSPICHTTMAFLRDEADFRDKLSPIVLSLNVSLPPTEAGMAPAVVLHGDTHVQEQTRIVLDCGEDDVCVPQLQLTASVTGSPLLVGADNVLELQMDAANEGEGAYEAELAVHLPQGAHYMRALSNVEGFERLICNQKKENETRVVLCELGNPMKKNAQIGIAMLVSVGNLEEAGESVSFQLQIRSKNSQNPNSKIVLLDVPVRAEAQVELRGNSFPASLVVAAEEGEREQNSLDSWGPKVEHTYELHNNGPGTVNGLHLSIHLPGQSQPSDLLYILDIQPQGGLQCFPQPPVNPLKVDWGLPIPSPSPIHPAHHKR
GP IIb/IIIa, sequence (P08514 891-1039 partner limits assumed): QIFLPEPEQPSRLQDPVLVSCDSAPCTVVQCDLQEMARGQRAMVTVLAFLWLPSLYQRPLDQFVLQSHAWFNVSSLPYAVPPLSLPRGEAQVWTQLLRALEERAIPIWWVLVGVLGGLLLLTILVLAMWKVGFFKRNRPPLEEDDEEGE
GP IIb/IIIa, sequence (P05106 27-788): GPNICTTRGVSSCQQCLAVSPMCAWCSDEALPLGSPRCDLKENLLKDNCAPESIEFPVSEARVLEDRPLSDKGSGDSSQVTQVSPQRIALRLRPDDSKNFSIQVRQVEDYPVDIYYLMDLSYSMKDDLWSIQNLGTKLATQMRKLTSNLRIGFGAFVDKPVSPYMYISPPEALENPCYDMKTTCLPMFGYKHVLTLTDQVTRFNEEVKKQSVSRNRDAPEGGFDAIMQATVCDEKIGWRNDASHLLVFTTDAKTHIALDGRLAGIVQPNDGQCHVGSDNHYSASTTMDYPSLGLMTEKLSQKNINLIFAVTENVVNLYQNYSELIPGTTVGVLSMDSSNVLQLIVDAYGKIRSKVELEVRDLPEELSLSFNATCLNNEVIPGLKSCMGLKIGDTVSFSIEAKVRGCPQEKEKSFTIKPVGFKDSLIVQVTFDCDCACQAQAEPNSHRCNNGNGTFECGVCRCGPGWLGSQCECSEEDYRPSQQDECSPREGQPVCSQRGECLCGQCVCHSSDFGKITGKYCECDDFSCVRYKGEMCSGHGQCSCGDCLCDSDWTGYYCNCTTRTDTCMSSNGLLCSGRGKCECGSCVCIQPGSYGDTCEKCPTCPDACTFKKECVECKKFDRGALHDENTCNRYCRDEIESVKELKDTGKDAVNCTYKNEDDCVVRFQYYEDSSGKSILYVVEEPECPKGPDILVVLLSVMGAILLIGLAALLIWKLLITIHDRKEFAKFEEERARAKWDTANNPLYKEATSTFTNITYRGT

Substance | IC50 [1] [nM] | ex vivo ADP-stimulated aggregation ([2]; 10 mg/kg injected, 1, 3 and 5 h) | coronary thrombosis, time to full occlusion ([3]; 10 mg/kg) | reduction in 111In-platelet uptake by graft [4, 12] [%] | reduction in 131I-fibrinogen uptake by graft [4, 12] [%] | reduction in labelled fibrinogen uptake by graft [4, 13] [%] | reduction in labelled platelet uptake by graft [4, 13] [%] | platelet aggregation in PRP [5] | IC50 [6] [µM] | ex vivo platelet activation by collagen ([2]; 5 mg/kg injection) | ex vivo platelet response to ADP and AA ([2]; 5 mg/kg injection, all three time points) | ex vivo platelet aggregation by ADP, AA and collagen ([2]; 10 mg/kg injection) | ex vivo platelet responsiveness ([2]; 10 mg/kg, five-hour point) | coronary thrombosis, time to full occlusion ([3]; 5 mg/kg) | thrombus formation ([3]; 5 mg/kg, circulating platelet levels one-third of normal) | PBF (units) [7] [units] | IC50 [8] [nM] | IC50 [9] [nM] | ex vivo platelet aggregation inhibited [10] [%] | differential inhibition of ligand binding to GP IIb/IIIa [11]
G(Pen)GHRGDLRCA [Peptide 2G] | 15000 to 30000 | substantially inhibited | did not significantly influence this frequency | 90 | 79 | 78 | 84 | completely unresponsive | – | – | – | – | – | – | – | – | – | – | – | –
R(Pen)GHRGDWRCR [Peptide 4Q] | 1500 to 5000 | – | completely prevented occlusion for the full five-hour experimental period | – | – | – | – | – | 3.3 | near-maximal inhibition | completely unresponsive | prevented platelet aggregation by all three stimuli at one- and three-hour time points | platelet responsiveness was slightly improved | significantly prolonged the time to occlusion | able to prevent thrombus formation | 9 | 1200 | 1300 | – | –
Ac-CNPRGD(O-Me-Y)RCNH2 [Peptide 8X] | – | – | – | – | – | – | – | – | – | – | – | – | – | – | – | – | – | – | > 95 | inhibits the binding of fibrinogen to GP IIb/IIIa more than it inhibits the binding of fibronectin and vitronectin to the same integrin
